Assay results taken from ChEMBL document CHEMBL5608259 (J Med Chem, 2024).
Active and inactive are the calls of the source. The rule behind the calls is not given here.

Key:
[1] = biological target: Protein arginine N-methyltransferase 3 (Homo sapiens, UniProt O60678); test: Inhibition of human PRMT3 using H4-21peptide as substrate at 10 uM incubated for 10 mins by fluorescence based analysis relative to control
[2] = biological target: T1, Histone-arginine methyltransferase CARM1 (Homo sapiens) (UniProt Q86X55); test: Inhibition of human PRMT4 using histone H3 as substrate and SAM as cofactor at 10 uM by radiometric HotSpot assay relative to control
T1 sequence (whole entry): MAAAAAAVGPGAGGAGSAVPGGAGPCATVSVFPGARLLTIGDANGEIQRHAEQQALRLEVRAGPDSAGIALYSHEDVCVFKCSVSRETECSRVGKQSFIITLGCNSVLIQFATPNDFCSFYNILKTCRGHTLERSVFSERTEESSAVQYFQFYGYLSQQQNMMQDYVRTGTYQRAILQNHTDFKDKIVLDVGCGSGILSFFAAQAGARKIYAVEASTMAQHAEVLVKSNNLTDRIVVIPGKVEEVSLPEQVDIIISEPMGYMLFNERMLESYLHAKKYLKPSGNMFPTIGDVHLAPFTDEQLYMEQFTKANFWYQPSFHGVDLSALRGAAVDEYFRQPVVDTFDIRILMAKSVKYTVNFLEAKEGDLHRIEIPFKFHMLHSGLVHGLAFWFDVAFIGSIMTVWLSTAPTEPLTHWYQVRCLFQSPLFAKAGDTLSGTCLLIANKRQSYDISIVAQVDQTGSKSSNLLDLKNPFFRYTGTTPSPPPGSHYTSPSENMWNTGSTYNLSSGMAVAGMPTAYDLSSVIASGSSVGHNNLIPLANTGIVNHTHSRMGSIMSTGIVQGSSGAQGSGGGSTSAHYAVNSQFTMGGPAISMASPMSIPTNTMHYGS

[3] = biological target: Protein arginine N-methyltransferase 6 (Homo sapiens, UniProt Q96LA8); test: Inhibition of human PRMT6 using GST-GAR as substrate and SAM as cofactor at 10 uM by radiometric HotSpot assay relative to control
[4] = biological target: Protein arginine N-methyltransferase 8 (Homo sapiens, UniProt Q9NR22); test: Inhibition of human PRMT8 using Histone H4 as substrate and SAM as cofactor at 10 uM by radiometric HotSpot assay relative to control
[5] = biological target: Protein arginine N-methyltransferase 1 (Homo sapiens, UniProt Q99873); test: Inhibition of human PRMT1 using H4-21peptide as substrate at 10 uM incubated for 10 mins by fluorescence based analysis relative to control
Chain of Protein arginine N-methyltransferase 1 (Q99873 whole entry, looked up): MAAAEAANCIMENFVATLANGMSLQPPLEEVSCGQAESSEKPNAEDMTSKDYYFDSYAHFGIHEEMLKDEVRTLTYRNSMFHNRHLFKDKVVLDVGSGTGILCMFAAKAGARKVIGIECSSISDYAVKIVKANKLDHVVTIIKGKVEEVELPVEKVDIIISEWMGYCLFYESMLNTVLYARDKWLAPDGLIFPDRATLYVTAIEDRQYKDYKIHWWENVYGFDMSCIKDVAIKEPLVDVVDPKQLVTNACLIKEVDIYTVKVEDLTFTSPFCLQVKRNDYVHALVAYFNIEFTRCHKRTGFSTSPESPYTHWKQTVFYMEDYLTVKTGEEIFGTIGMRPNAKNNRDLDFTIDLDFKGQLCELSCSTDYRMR

Chain of Protein arginine N-methyltransferase 8 (Q9NR22 2-394 limits assumed): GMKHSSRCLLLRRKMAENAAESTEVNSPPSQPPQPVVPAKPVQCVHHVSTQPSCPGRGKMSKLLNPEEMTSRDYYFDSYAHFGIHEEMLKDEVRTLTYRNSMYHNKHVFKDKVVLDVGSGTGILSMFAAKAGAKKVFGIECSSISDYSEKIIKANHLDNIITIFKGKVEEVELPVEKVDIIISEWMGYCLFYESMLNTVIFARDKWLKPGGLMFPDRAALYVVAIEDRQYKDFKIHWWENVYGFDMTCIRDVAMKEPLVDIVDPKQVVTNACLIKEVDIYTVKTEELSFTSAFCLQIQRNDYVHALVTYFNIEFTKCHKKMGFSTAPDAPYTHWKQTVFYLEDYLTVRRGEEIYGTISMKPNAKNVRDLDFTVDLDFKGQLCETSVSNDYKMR
Chain of Protein arginine N-methyltransferase 6 (Q96LA8 whole entry, looked up): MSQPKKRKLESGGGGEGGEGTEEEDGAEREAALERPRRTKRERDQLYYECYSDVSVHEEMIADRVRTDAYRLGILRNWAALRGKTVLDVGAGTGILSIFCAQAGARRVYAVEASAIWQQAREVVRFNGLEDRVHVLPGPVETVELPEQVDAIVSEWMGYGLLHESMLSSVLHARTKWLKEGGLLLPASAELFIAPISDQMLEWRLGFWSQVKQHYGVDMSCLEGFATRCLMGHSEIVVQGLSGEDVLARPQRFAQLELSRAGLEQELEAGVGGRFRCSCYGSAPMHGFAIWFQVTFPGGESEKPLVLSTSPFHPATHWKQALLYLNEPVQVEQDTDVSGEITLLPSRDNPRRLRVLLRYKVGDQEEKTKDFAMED
Chain of Protein arginine N-methyltransferase 3 (O60678 2-531 limits assumed): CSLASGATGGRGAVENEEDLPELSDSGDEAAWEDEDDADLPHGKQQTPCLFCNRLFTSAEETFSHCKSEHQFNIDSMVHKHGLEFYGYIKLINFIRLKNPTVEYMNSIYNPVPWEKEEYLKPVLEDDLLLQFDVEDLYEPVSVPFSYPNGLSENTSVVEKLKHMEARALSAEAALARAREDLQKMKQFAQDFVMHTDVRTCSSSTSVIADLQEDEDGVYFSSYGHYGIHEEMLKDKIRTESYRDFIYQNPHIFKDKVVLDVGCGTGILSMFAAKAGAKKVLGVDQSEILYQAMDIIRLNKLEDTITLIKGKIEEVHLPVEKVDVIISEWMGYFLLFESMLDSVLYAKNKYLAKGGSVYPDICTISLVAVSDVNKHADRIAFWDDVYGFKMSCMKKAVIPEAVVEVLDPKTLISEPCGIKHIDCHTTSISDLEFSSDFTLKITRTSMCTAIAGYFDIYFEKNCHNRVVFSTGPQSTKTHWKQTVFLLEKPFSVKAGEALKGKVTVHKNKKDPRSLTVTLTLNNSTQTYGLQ

`Nc1ncnc2c1ncn2[C@@H]1O[C@H](CSCCNCc2cccc(-c3ccc(C(F)(F)F)cc3)c2)[C@@H](O)[C@H]1O` showed an inhibition [1] of under 30%, an inhibition [2] of over 90% and an inhibition [3] of 50%. It also gave an inhibition [4] of over 50%.

With `Nc1ncnc2c1ncn2[C@@H]1O[C@H](CSCCNCc2cccc(-c3ccc(Cl)cc3)c2)[C@@H](O)[C@H]1O` the inhibition [1] was under 30%, the inhibition [2] was over 90% and the inhibition [3] was 50%. The inhibition [4] was over 50%.

`Nc1ncnc2c1ncn2[C@@H]1O[C@H](CSCCNCc2cccc(-c3ccc(O)cc3)c2)[C@@H](O)[C@H]1O` was tested, and the inhibition [1] was under 30%, the inhibition [2] was over 90% and the inhibition [3] was 50%. For the same compound, the inhibition [4] was over 50%.

With `Nc1ncnc2c1ncn2[C@@H]1O[C@H](CSCCOc2ccc(-c3cccc(O)c3)cc2)[C@@H](O)[C@H]1O` the inhibition [5] was “inactive”, the inhibition [1] was under 30% and the inhibition [3] was under 50%. For the same compound, the inhibition [4] was under 50%.

In the case of `Nc1ncnc2c1ncn2[C@@H]1O[C@H](CSCCCNCc2cccc(-c3ccc(Cl)cc3)c2)[C@@H](O)[C@H]1O`, the inhibition [1] is reported as under 30%, the inhibition [2] is reported as over 90% and the inhibition [3] is reported as 50%. The inhibition [4] was over 50%.

In the case of `Nc1ncnc2c1ncn2[C@@H]1O[C@H](CSCCOc2ccc(-c3ccncc3)cc2)[C@@H](O)[C@H]1O`, the inhibition [5] is reported as “inactive”, the inhibition [1] is reported as under 30% and the inhibition [3] is reported as under 50%. For the same compound, the inhibition [4] was under 50%.

With `Nc1ncnc2c1ncn2[C@@H]1O[C@H](CSCCOc2ccc(-c3cncnc3)cc2)[C@@H](O)[C@H]1O` the inhibition [5] was “inactive”, the inhibition [1] was under 30% and the inhibition [3] was under 50%. For the same compound, the inhibition [4] was under 50%.

`Nc1ncnc2c1ncn2[C@@H]1O[C@H](CSCCNCc2cccc(-c3cccc(O)c3)c2)[C@@H](O)[C@H]1O` was tested, and the inhibition [1] was under 30%, the inhibition [2] was over 90% and the inhibition [3] was 50%. For the same compound, the inhibition [4] was over 50%.

`Nc1ncnc2c1ncn2[C@@H]1O[C@H](CSCCCNCc2cccc(-c3ccc(O)cc3)c2)[C@@H](O)[C@H]1O` was tested, and the inhibition [1] was under 30%, the inhibition [2] was over 90% and the inhibition [3] was 50%. The inhibition [4] was over 50%.

Compound `Nc1ncnc2c1ncn2[C@@H]1O[C@H](CSCCNCc2cccc(-c3cccc4cn[nH]c34)c2)[C@@H](O)[C@H]1O` has an inhibition [1] of under 30%, an inhibition [2] of over 90% and an inhibition [3] of 50%. The inhibition [4] was over 50%.

Compound `Nc1ncnc2c1ncn2[C@@H]1O[C@H](CSCCNCc2cccc(-c3ccc(F)c(O)c3)c2)[C@@H](O)[C@H]1O` has an inhibition [1] of under 30%, an inhibition [2] of over 90% and an inhibition [3] of 50%. It also gave an inhibition [4] of over 50%.

With `Nc1ncnc2c1ncn2[C@@H]1O[C@H](CSCCOc2ccc(-c3ccccc3O)cc2)[C@@H](O)[C@H]1O` the inhibition [5] was “inactive”, the inhibition [1] was under 30% and the inhibition [3] was under 50%. For the same compound, the inhibition [4] was under 50%.

`Nc1ncnc2c1ncn2[C@@H]1O[C@H](CSCCCNCc2cccc(-c3ccc(F)c(O)c3)c2)[C@@H](O)[C@H]1O` showed an inhibition [1] of under 30%, an inhibition [2] of over 90% and an inhibition [3] of 50%. For the same compound, the inhibition [4] was over 50%.

With `Nc1ncnc2c1ncn2[C@@H]1O[C@H](CSCCOc2ccc(-c3ccc(F)cc3)cc2)[C@@H](O)[C@H]1O` the inhibition [5] was “inactive”, the inhibition [1] was under 30% and the inhibition [3] was under 50%. For the same compound, the inhibition [4] was under 50%.

`Nc1ncnc2c1ncn2[C@@H]1O[C@H](CSCCCNCc2cccc(-c3cccc(F)c3)c2)[C@@H](O)[C@H]1O` showed an inhibition [1] of under 30%, an inhibition [2] of over 90% and an inhibition [3] of 50%. It also gave an inhibition [4] of over 50%.

With `Nc1ncnc2c1ncn2[C@@H]1O[C@H](CSCCNCc2cccc(-c3ccncc3)c2)[C@@H](O)[C@H]1O` the inhibition [1] was under 30%, the inhibition [2] was over 90% and the inhibition [3] was 50%. The inhibition [4] was over 50%.

With `Nc1ncnc2c1ncn2[C@@H]1O[C@H](CSCCOc2ccc(-c3ccc(F)c(O)c3)cc2)[C@@H](O)[C@H]1O` the inhibition [5] was “inactive”, the inhibition [1] was under 30% and the inhibition [3] was under 50%. It also gave an inhibition [4] of under 50%.

With `Nc1ncnc2c1ncn2[C@@H]1O[C@H](CSCCCNCc2cccc(-c3ccc(C(F)(F)F)cc3)c2)[C@@H](O)[C@H]1O` the inhibition [1] was under 30%, the inhibition [2] was over 90% and the inhibition [3] was 50%. The inhibition [4] was over 50%.

With `N=C(NCCCSC[C@H]1O[C@@H](n2cnc3c(N)ncnc32)[C@H](O)[C@@H]1O)Nc1cccc(-c2n[nH]cc2C(F)(F)F)c1` the inhibition [5] was over 50%, the inhibition [2] was over 90% and the inhibition [3] was over 90%. The inhibition [4] was over 95%.

`N=C(NCCCSC[C@H]1O[C@@H](n2cnc3c(N)ncnc32)[C@H](O)[C@@H]1O)Nc1cccc(-c2cccc(F)c2)c1` gave an inhibition [5] of over 50%, an inhibition [2] of over 90% and an inhibition [3] of over 90%. For the same compound, the inhibition [4] was over 95%.

In the case of `Nc1ncnc2c1ncn2[C@@H]1O[C@H](CSCCCNCc2cccc(-c3cccc4cn[nH]c34)c2)[C@@H](O)[C@H]1O`, the inhibition [1] is reported as under 30%, the inhibition [2] is reported as over 90% and the inhibition [3] is reported as 50%. For the same compound, the inhibition [4] was over 50%.

Compound `N=C(NCCCSC[C@H]1O[C@@H](n2cnc3c(N)ncnc32)[C@H](O)[C@@H]1O)Nc1cccc(-c2cncnc2)c1` has an inhibition [5] of over 50%, an inhibition [2] of over 90% and an inhibition [3] of over 90%. The inhibition [4] was over 95%.

`N=C(NCCSC[C@H]1O[C@@H](n2cnc3c(N)ncnc32)[C@H](O)[C@@H]1O)Nc1cccc(-c2ccc(Cl)cc2)c1` was tested, and the inhibition [5] was over 50%, the inhibition [2] was over 90% and the inhibition [3] was over 90%. It also gave an inhibition [4] of over 95%.

`Nc1cccc(-c2cccc(CNCCSC[C@H]3O[C@@H](n4cnc5c(N)ncnc54)[C@H](O)[C@@H]3O)c2)c1` was tested, and the inhibition [1] was under 30%, the inhibition [2] was over 90% and the inhibition [3] was 50%. The inhibition [4] was over 50%.

`N=C(NCCCSC[C@H]1O[C@@H](n2cnc3c(N)ncnc32)[C@H](O)[C@@H]1O)Nc1cccc(-c2ccc(O)cc2)c1` showed an inhibition [5] of over 50%, an inhibition [2] of over 90% and an inhibition [3] of over 90%. It also gave an inhibition [4] of over 95%.

`Nc1ncnc2c1ncn2[C@@H]1O[C@H](CSCCCNCc2cccc(-c3ccoc3)c2)[C@@H](O)[C@H]1O` was tested, and the inhibition [1] was under 30%, the inhibition [2] was over 90% and the inhibition [3] was 50%. The inhibition [4] was over 50%.

For `Nc1ncnc2c1ncn2[C@@H]1O[C@H](CSCCNCc2cccc(-c3ccccc3O)c2)[C@@H](O)[C@H]1O`, the inhibition [1] was under 30%, the inhibition [2] was over 90% and the inhibition [3] was 50%. The inhibition [4] was over 50%.

`Nc1ncnc2c1ncn2[C@@H]1O[C@H](CSCCNCc2cccc(-c3cccc(F)c3)c2)[C@@H](O)[C@H]1O` was tested, and the inhibition [1] was under 30%, the inhibition [2] was over 90% and the inhibition [3] was 50%. The inhibition [4] was over 50%.

For `N=C(NCCCSC[C@H]1O[C@@H](n2cnc3c(N)ncnc32)[C@H](O)[C@@H]1O)Nc1cccc(-c2ccoc2)c1`, the inhibition [5] was over 50%, the inhibition [2] was over 90% and the inhibition [3] was over 90%. For the same compound, the inhibition [4] was over 95%.

With `N=C(NCCCSC[C@H]1O[C@@H](n2cnc3c(N)ncnc32)[C@H](O)[C@@H]1O)Nc1cccc(-c2ccc3c(c2)OCCO3)c1` the inhibition [5] was over 50%, the inhibition [2] was over 90% and the inhibition [3] was over 90%. It also gave an inhibition [4] of over 95%.

`N=C(NCCCSC[C@H]1O[C@@H](n2cnc3c(N)ncnc32)[C@H](O)[C@@H]1O)Nc1cccc(-c2ccc(C(F)(F)F)cc2)c1` showed an inhibition [5] of over 50%, an inhibition [2] of over 90% and an inhibition [3] of over 90%. The inhibition [4] was over 95%.

With `N=C(NCCCSC[C@H]1O[C@@H](n2cnc3c(N)ncnc32)[C@H](O)[C@@H]1O)Nc1cccc(-c2ccc(F)c(O)c2)c1` the inhibition [5] was over 50%, the inhibition [2] was over 90% and the inhibition [3] was over 90%. For the same compound, the inhibition [4] was over 95%.
